Source: patent US20170152226A1, “FUNCTIONALISED AND SUBSTITUTED INDOLES AS ANTI-CANCER AGENTS” (Novogen Ltd., priority 2014, published 2017)

Tests used:
Type in all cases: cell-based
A549 = test: Anti-proliferative activity, cell-titre luminescent viability assay; details: Homo sapiens, A549, 72 h, 0.03, 0.3, 3 and 30 μM, linear regression of semi-log plots, read-out: IC50 Lung (NSLC) A549
In short: (§1)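 Cells attached for 24 h at 37° C, 5% CO2, then received compound (0.03, 0.3, 3, 30 μM, or 0.1–30 μM in six steps) for 72 h. Viability was read by cell-titre luminescence after 30 min and normalized to untreated or vehicle control. IC50 came from linear regression of semi-log plots, or EC50 from variable-slope sigmoidal nonlinear regression, depending on compound.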

CaCo2 = test: as above; details: Homo sapiens, Caco-2, 72 h, 0.03, 0.3, 3 and 30 μM, linear regression of semi-log plots, read-out: IC50 Colorectal CaCo2
In short: as §1

DU145 = test: as above; details: Homo sapiens, DU-145, 72 h, 0.03, 0.3, 3 and 30 μM, linear regression of semi-log plots, read-out: IC50 Prostate DU145
In short: as §1

MDA-MB-231 = test: as above; details: Homo sapiens, MDA-MB-231, 72 h, 0.03, 0.3, 3 and 30 μM, linear regression of semi-log plots, read-out: IC50 Breast MDA-MB-231
In short: as §1

PC3 = test: as above; details: Homo sapiens, PC-3, 72 h, 0.03, 0.3, 3 and 30 μM, linear regression of semi-log plots, read-out: IC50 Prostate PC3
In short: as §1

SK-Mel-28 = test: as above; details: Homo sapiens, SK-MEL-28; 72 hours; 0.03, 0.3, 3 and 30 μM; linear regression of semi-log plots; read-out: IC50 Melanoma SK-Mel-28
In short: as §1

SK-N-SH = test: as above; details: Homo sapiens, SK-N-SH, 72 h, 0.03, 0.3, 3 and 30 μM, linear regression of semi-log plots, read-out: IC50 Neuroblastoma SK-N-SH
In short: as §1

[1] = system: total actin cytoskeleton in SK-N-SH neuroblastoma cells; test: Microfilament disruption assay, phalloidin staining; details: 0-40 μM, 24 hours post treatment
Description: (§2) FIG. 1: Imaging and quantitation of actin filaments in SK-N-SH neuroblastoma cells treated with compound (A) 3504, (B) 3507 and (C) 3516. Cells were stained with 488-Atto-Phallodin and DAPI to visualize the actin filament bundles and the nucleus, respectively. Shown in the top panel is a representative grey scale immunofluorescent image from control (vehicle alone), 5 μM and 10 μM treated cells. […] The coloured lines indicate the detected actin filaments. Also shown is the quantitation of cell number, filament number/cell and filament number/cell area (μM^2). […]
(§3) The ability of compounds 3504, 3507 and 3516 to disrupt the total actin cytoskeleton (FIG. 1) and to specifically target Tpm3.1-containing actin filaments (FIG. 2) was assessed in vitro using the microfilament disruption assay.
(§4) Briefly, SK-N-SH neuroblastoma cells were seeded at 1800 cells/well in a 384 Perkin Elmer High Content Imaging “View” plate and left to plate down 24 hours prior to treatment. […] Images were then exported and changes in the organization and numbers of actin filaments within the cell were quantitated using a linear feature detection algorithm developed by the CSIRO (Vindin et al., 2014). […] It is these “ridge lines” that correspond to actin filament bundles and allow us to quantitate the number of filaments per cell.

[2] = system: Tpm3.1-containing actin filaments in SK-N-SH neuroblastoma cells; test: Microfilament disruption assay, γ9d staining; details: 0-40 μM, 24 hours post treatment
Description: as §2, with “FIG. 2:” for “FIG. 1:”, “with γ9d (sheep polycolonal, 1:100) followed by 488-conjugated secondary (1:1000)” for “with 488-Atto-Phallodin”, “the Tpm3.1 containing” for “the actin”
as §3, §4

IC50 (A549): 2200 nM
IC50 (CaCo2): 2100 nM
IC50 (DU145): 3000 nM
IC50 (MDA-MB-231): 1300 nM
IC50 (PC3): 3500 nM
IC50 (SK-Mel-28): 2600 nM
IC50 (SK-N-SH): 1400 nM
SMILES: Cc1c(C)n(CCCN2CCN(C)CC2)c2ccc(Nc3cccc(C(=O)N4CCN(CCc5cccc(F)c5)CC4)c3)cc12 [Compound 3516, (3-((2,3-dimethyl-1-(3-(4-methylpiperazin-1-yl)propyl)-1H-indol-5-yl)amino)phenyl)(4-(3-fluorophenethyl)piperazin-1-yl)methanone]
disruption of the total actin cytoskeleton [1]: in a dose-dependent manner
disruption of Tpm3.1-containing actin filaments [2]: in a dose-dependent manner
